Assay results published in patent US20090258030A1, “Materials and Methods for Improving Livestock Productivity” (priority 2006, published 2009).
Structures can show the parent of a compound that is named as a salt. Marks after values point to notes of the source that are not given here.

Key:
[1] = Intestine villi length and histology in pigs (Example 4); type: in vivo, swine; details: 150 g of cysteamine hydrochloride per ton of feed; 30 days
Method: 72 piglets were evenly divided into control group and Cysteamine group. The control group was treated with basal diet only, while the Cysteamine group was added with 150 g of cysteamine hydrochloride per ton of feed. The trial was lasted for 30 days.
Immediately after evisceration, tissue samples from the small intestine, large intestine, liver, and pancreas of pigs from each treatment group were collected. The collected samples were placed in properly labeled containers containing 10% buffered neutral formalin solution. The tissue samples were fixed for 78 hours before they were processed for routine histological examination using the paraffin embedding technique (well-known to the skilled artisan).
Sections approximately 5 to 6μ thick were cut from paraffin blocked tissues using Optical 820 Rotary Microtome (Scientific Instruments Division, Buffalo, N.Y.). Some sections were stained with hematoxylin and eosin (H & E), others with Alcian blue. H & E stained sections were used for the examination of the general histology of the intestinal tract while the Alcian blue stained sections were used for goblet cells identification. The stained sections were examined under various magnifications using a light microscope.
The number and length (μm) of villi in the small intestine were counted per microscopic field; the thickness of the tunica muscularis in the small and large intestine were measured using American Optical Micrometer (American Optical Company, Buffalo, N.Y.) calibrated in millimeters. The mucosal folds in the large intestine, the density of intestinal glands (crypts), the appearance of the surface epithelium were all observed. The general histology of the liver and pancreas were examined and compared between Cysteamine treated and non-Cysteamine treated groups. Goblet cell density in the Cysteamine treated and non-Cysteamine treated pigs was compared through visual examination using light microscope.

[2] = Effect of cysteamine compound on crossbreed sheep (Example 6); type: in vivo
[3] = Cysteamine used to fatten pigs (Example 8); type: in vivo; details: 190 ppm
[4] = Efficacy of cysteamine hydrochloride on sow and their weaning piglets performance (Example 9); type: in vivo, swine (crossbred Yolkshire and Lanrace sows); details: for Total of pigs born: 10 sows from 84 days gestation; for Av. of milk yield, L/d: calculated from average daily gain of piglets × 4 × no of piglets in each litter; for Total number of piglets at weaning: weaned at 21 days
Source text: All sows used in the experiment were crossbred (Yolkshire and Lanrace) selected from the 3rd and the 4^Th (ratio 4:6) pregnancy. Thirty sows (84 days gestation) were equally allocated into three treatments and each treatment of sows were divided into 10 replications with each sow per replication.
Cysteamine Hydrochloride was included to sow feeds at 135 ppm or 190 ppm. The diets were fed in mash form, water was allowed ad libitum. Litter size, litter weights, number of piglets born alive and weaned were recorded. Morbidity, incidence of diarrhea and mortality rates were recorded. Piglet's uniformity was accounted as percentage units that fell into two times of standard deviation based on average weaning live weight. The piglets from each sow were weaned at 21 days of age. On day 109 of gestation, sows were moved to farrowing units and were weight after farrowing and also weighed again after lactation. Back fat losses were measured every weeks during lactation period by using Renco Lean-Meter (Ultrasound for Ultra-profits, Renco Corporation, Minnesota, 55401, USA). Sows were fed about 2 kg/day during 16-84 days, 3 kg/day until farrowing and fed ad libitum during lactation period.
All sows were housed in cages adjacent to the boar's area and serviced by artificial insemination twice at 18 hours interval with the checked quality semen of the same boar. After 1 week service, they were weighed and moved to individual gestation cages. Five days prior to the date of parturition, they were moved to the farrowing units for setting in and staying till piglets weaning. After piglets weaning each sow was moved again to the service area.
All sows and piglets were subject to the usual vaccination program, antiparasitic treatment, iron injection and tail docking for piglets. An individual treatment was done if a disease or injury was developed during the trial, under the authority of the veterinary in charge of the farm animal health.

[5] = 900 g cysteamine HCl per tonnage of diet, after 35 days
[6] = 900 g/tonnage, 35 days, vs control
[7] = feed consumed, 900 g/tonnage, 35 days, 20 head
[8] = T2: 0.0135 (135 ppm in sow feed)
[9] = T3: 0.019 (190 ppm in sow feed)

SMILES: NCCS [Cysteamine Hydrochloride, cysteamine hydrochloride]
- Villi Length, Small Intestines [1]: 2.15 ± 0.09^A
- goblet cells in the small and large intestine vs non-Cysteamine-treated [1]: noticeably larger and highly distended
- number and length of small intestinal villi vs non-Cysteamine treated [1]: more numerous and longer
- amount of silage necessary in raising the sheep [2, 5]: reduction
- weight (ADG) vs control [2, 5]: statistically significant increase
- ADG (g/head/day) ([2]; 900 g/tonnage, 35 days): 82.29 g/head/day
- Final weight (kg/head) ([2]; 900 g/tonnage, 35 days): 29.59 kg/head
- Weight gain (kg/head) ([2]; 900 g/tonnage, 35 days): 2.88 kg/head
- Total feed consumption ([2]; 900 g/tonnage, 35 days, 20 head): 1001.2 kg
- ADG: Improvement (%) [2, 6]: 46.2%
- Silage: Improvement (%) [2, 6]: −5.14%
- Weight gain: Improvement (%) [2, 6]: 46.2%
- Concentrate [2, 7]: 245 kg
- Hay [2, 7]: 350.0 kg
- Silage [2, 7]: 406.2 kg
- ADG ([3]; from 68 kg to market (35 days)): 1182 g
- Age ([3]; from 68 kg to market (35 days)): 187 days
- Ave. backfat thickness (cm) ([3]; from 68 kg to market (35 days)): 2.1 cm
- Back fat thickness (neck) (cm) ([3]; from 68 kg to market (35 days)): 3.0 cm
- Back fat thickness, Hip (cm) ([3]; from 68 kg to market (35 days)): 1.4 cm
- Back fat thickness, Middle part (cm) ([3]; from 68 kg to market (35 days)): 1.8 cm
- Body weight after slaughtering ([3]; from 68 kg to market (35 days)): 86 kg
- Body weight before slaughtering ([3]; from 68 kg to market (35 days)): 106 kg
- FCR ([3]; from 68 kg to market (35 days)): 2.71
- Feed consumption ([3]; from 68 kg to market (35 days)): 103 kg
- Loin eye diameter (cm) ([3]; from 68 kg to market (35 days)): 33.0 cm
- ADG: Improvement ([3]; vs control): 125 g
- ADG: Improvement (%) ([3]; vs control): 11.79%
- Age: Improvement ([3]; vs control): -5 days
- Age: Improvement (%) ([3]; vs control): −2.60%
- Ave. backfat thickness: Improvement ([3]; vs control): −0.5 cm
- Ave. backfat thickness: Improvement (%) ([3]; vs control): −18.42%
- Back fat thickness (neck): Improvement ([3]; vs control): −0.6 cm
- Back fat thickness (neck): Improvement (%) ([3]; vs control): −16.67%
- Back fat thickness, Hip: Improvement ([3]; vs control): −0.2 cm
- Back fat thickness, Hip: Improvement (%) ([3]; vs control): −12.50%
- Back fat thickness, Middle part: Improvement ([3]; vs control): −0.6 cm
- Back fat thickness, Middle part: Improvement (%) ([3]; vs control): −25.00%
- Body weight after slaughtering: Improvement ([3]; vs control): 2 kg
- Body weight after slaughtering: Improvement (%) ([3]; vs control): 2.38%
- Body weight before slaughtering: Improvement ([3]; vs control): 2 kg
- Body weight before slaughtering: Improvement (%) ([3]; vs control): 1.92%
- FCR: Improvement ([3]; vs control): −0.26
- FCR: Improvement (%) ([3]; vs control): −8.80%
- Feed consumption: Improvement ([3]; vs control): -4 kg
- Feed consumption: Improvement (%) ([3]; vs control): −3.74%
- Loin eye diameter: Improvement ([3]; vs control): 2.5 cm
- Loin eye diameter: Improvement (%) ([3]; vs control): 8.20%
- Av. birth weight of piglets, kg [4, 8]: 1.737^a kg
- Av. daily feed intake of sow during lactation, kg [4, 8]: 5.88^a kg
- Av. daily gain of piglets [4, 8]: 355 g
- Av. feed intake per piglets [4, 8]: 179 g
- Av. live weight of piglets at weaning [4, 8]: 7.45 kg
- Av. number of piglets born alive per litter [4, 8]: 11.10
- Av. of piglet born per litter [4, 8]: 11.60
- Av. overall weight loss of sow during lactation, kg [4, 8]: 14.25^b kg
- Av. total birth weight of piglet per litter, kg [4, 8]: 19.10^a kg
- Back fat loss of sow during lactation, mm: Overall [4, 8]: 0.867^b mm
- Back fat loss of sow during lactation, mm: Week 1 [4, 8]: 0.165^b mm
- Back fat loss of sow during lactation, mm: Week 2 [4, 8]: 0.588^b mm
- Back fat loss of sow during lactation, mm: Week 3 [4, 8]: 0.114^b mm
- Number of piglet weaning per litter [4, 8]: 10.20
- Survival rate of piglets at weaning, % [4, 8]: 91.90%
- Total number of piglet born alive per litter [4, 8]: 111
- Total weight of piglets at weaning per litter, kg [4, 8]: 76.02^ab kg
- Uniformity of live weight at weaning, % [4, 8]: 86.68^a %
- Total of pigs born [4, 8]: 116
- Av. of milk yield, L/d [4, 8]: 14.48^ab L/d
- Total number of piglets at weaning [4, 8]: 102
- Av. birth weight of piglets, kg [4, 9]: 1.782^a kg
- Av. daily feed intake of sow during lactation, kg [4, 9]: 6.07^a kg
- Av. daily gain of piglets [4, 9]: 366 g
- Av. feed intake per piglets [4, 9]: 183 g
- Av. live weight of piglets at weaning [4, 9]: 7.68 kg
- Av. number of piglets born alive per litter [4, 9]: 10.70
- Av. of piglet born per litter [4, 9]: 11.50
- Av. overall weight loss of sow during lactation, kg [4, 9]: 13.58^b kg
- Av. total birth weight of piglet per litter, kg [4, 9]: 18.88^a kg
- Back fat loss of sow during lactation, mm: Overall [4, 9]: 0.829^b mm
- Back fat loss of sow during lactation, mm: Week 1 [4, 9]: 0.171^b mm
- Back fat loss of sow during lactation, mm: Week 2 [4, 9]: 0.548^b mm
- Back fat loss of sow during lactation, mm: Week 3 [4, 9]: 0.110^b mm
- Number of piglet weaning per litter [4, 9]: 10.40
- Survival rate of piglets at weaning, % [4, 9]: 97.20%
- Total number of piglet born alive per litter [4, 9]: 107
- Total weight of piglets at weaning per litter, kg [4, 9]: 79.42^a kg
- Uniformity of live weight at weaning, % [4, 9]: 86.95^a %
- Total of pigs born [4, 9]: 115
- Av. of milk yield, L/d [4, 9]: 15.13^a L/d
- Total number of piglets at weaning [4, 9]: 104
